The values below come from patent US10647677B2, “Analogues of hydroxychloroquine (HCQ) without retinal toxicity” (Inoviem Scientific, priority 2015, dated 2020).

The target of test [1] is T1, myeloperoxidase (MPO) (Homo sapiens, UniProt P05164).
T1 construct: purchased
T1 sequence (P05164 49-745): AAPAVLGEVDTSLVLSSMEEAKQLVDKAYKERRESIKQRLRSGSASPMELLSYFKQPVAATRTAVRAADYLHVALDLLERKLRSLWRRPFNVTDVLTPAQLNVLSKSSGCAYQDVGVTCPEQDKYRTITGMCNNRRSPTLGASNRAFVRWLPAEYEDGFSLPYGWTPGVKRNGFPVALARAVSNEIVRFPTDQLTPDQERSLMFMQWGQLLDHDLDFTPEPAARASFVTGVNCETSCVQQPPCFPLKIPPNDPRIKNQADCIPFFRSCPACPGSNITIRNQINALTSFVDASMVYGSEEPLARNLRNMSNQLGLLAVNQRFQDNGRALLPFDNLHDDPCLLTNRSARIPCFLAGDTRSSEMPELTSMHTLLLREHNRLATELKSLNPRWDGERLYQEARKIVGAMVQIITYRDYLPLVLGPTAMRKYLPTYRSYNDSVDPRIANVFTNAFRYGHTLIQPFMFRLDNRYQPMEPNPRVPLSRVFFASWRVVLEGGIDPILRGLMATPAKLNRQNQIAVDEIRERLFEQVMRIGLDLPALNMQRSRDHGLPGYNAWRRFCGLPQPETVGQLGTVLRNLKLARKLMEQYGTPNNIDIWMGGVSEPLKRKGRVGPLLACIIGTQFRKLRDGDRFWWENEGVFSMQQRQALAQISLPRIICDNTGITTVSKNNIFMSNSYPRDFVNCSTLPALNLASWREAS
Briefly: Surface plasmon resonance (Biacore 3000) affinity on MPO. The test is classed as binding. Particulars: SPR at 25° C. The method, then:
(§1) Using the surface plasmon resonance technology (Biacore 3000), the interaction constants between HCQ analogues (HCQa) and myeloperoxidase (MPO) targets and αB-crystalline (αB-C) were measured at 25° C. according to 12 different series of experiments. First, HCQ analogues at five different concentrations (10^−6 to 10^−8 M) were injected at a rate of 10^−6 L/min for 250 s on the MPO and αB-C targets as well as on the ERK1 and ERK2 controls, followed by a dissociation phase of 150 s.
(§2) The kinetic parameters were measured using the BIAevaluation 4.1 software. The set of resonance unit values obtained with the controls were subtracted from those obtained with MPO and αB-C to compensate for non-specific bonds.
(§3) The differences in Kd values for the myeloperoxidase (MPO) and αB-crystalline (αB-C) enzymes in Tables 1 and 2 are due to the variability of commercial batches. Nevertheless, the difference between the Kd of the compounds HCQ and CB137 remains identical according to these two tests.
(§4) Analysis of the compounds in the form of sulphate salts according to the method described above: […]

Test [2] concerns the target T2, αB-crystalline (αB-C) (Homo sapiens, UniProt P02511).
T2 construct: purchased
T2 sequence (P02511 1-175): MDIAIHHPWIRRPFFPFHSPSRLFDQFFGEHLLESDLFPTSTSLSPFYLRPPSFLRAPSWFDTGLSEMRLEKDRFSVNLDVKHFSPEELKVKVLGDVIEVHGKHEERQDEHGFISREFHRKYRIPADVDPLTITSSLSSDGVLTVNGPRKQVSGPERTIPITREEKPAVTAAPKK
Put plainly: Surface plasmon resonance (Biacore 3000) affinity on αB-crystalline. It is filed as binding. The conditions noted are these: SPR at 25° C.; for Kd: read-out: Kd (M) on crystallin. The protocol:
as §1, §2, §3, §4

[3] abbreviates: Table 2, compounds in the form of sulphate salts.

Like-named read-outs stand apart in the source and are kept apart here.

With `CCN(CCO)CCCC(C)Nc1ccnc2cc(Cl)ccc12` (single isomer, unassigned) [CB133], the Kd came out at 711 nM in test [1] (Table 1) and 2.19e-09 M in test [2] (Table 1).
With `CCN(CCO)CCCC(C)Nc1c(C#N)cnc2cc(Cl)ccc12` (stereo not drawn) [CB029], the Kd in test [1] (Table 1) was 71 nM; in test [2] (Table 1) it was 3.5e-08 M.
`CCN(CCO)CCCC(C)Nc1c(Cl)cnc2cc(Cl)ccc12` (stereo not drawn) [CB072]: the Kd in test [1] (Table 1) came out at 1.1 nM; in test [2] (Table 1), 1.6e-07 M.
For `CCN(CCO)CCCC(C)Nc1c(C(=O)C2CC2)cnc2cc(Cl)ccc12` (stereo not drawn) [CB103], in that order: 36 nM and 6.6e-07 M.
Take `CCN(CCO)CCCC(C)Nc1c(C(F)(F)F)cnc2cc(Cl)ccc12` (stereo not drawn) [CB108]: the Kd came out at 14 nM in test [1] (Table 1) and 8.1e-07 M in test [2] (Table 1).
Consider `CCN(CCO)CCCC(C)Nc1c(C(=O)C(F)(F)F)cnc2cc(Cl)ccc12` (stereo not drawn) [CB114], for which the Kd in test [1] (Table 1) came to 60 nM; in test [2] (Table 1) it was 2.2e-05 M.
For `CCN(CCO)CCCC(C)Nc1ccnc2cc(Cl)cc(Cl)c12` (stereo not drawn) [CB300], the Kd in test [1] (setting [3]) came to 4000 nM; in test [2] (setting [3]), 0.0002 M.
With `CCN(CCO)CCCC(C)Nc1ccnc2c(Cl)c(Cl)ccc12` (stereo not drawn) [CB317], the Kd in test [1] (setting [3]) came out at 9000 nM.
As for `CCN(CCO)CCC[C@@H](C)Nc1ccnc2cc(Cl)cc(Cl)c12` [CB321 R-enantiomer], the values for the Kd in test [1] (setting [3]) and in test [2] (setting [3]) were 7000 nM and 1e-05 M, respectively.
Consider `CCN(CCO)CCC[C@@H](C)Nc1c(Cl)cnc2cc(Cl)ccc12` [CB323 R-enantioer], for which the Kd in test [1] (setting [3]) came to 90 nM; in test [2] (setting [3]), 0.0002 M.
Consider `CCN(CCO)CCCC(C)Nc1c(C2CC2)cnc2cc(Cl)ccc12` (stereo not drawn) [CB341], for which the Kd in test [1] (setting [3]) turned out to be 5000 nM; in test [2] (setting [3]), 2e-05 M.
In test [1] (Table 1), `CCOC(=O)c1cnc2cc(Cl)ccc2c1NC(C)CCCN(CC)CCO` (stereo not drawn) [NT36F9] had a Kd of 7.5 nM. Moreover, the “Kd (M) on crystallin” value in test [2] (Table 1) was “Kd not measurable because below the detection threshold”.
As to `C#CCOCc1cnc2cc(Cl)ccc2c1NC(C)CCCN(CC)CCO` (stereo not drawn) [NT69], the “Kd (M) on crystallin” value in test [2] (Table 1) was “Kd not measurable because below the detection threshold”.
